The record followed here is a melting point compilation (Tetko et al.; mined from patent text by program, amines drawn as free bases though some values may be those of a salt).

The term melting point denotes the temperature, or range, at which the solid turns liquid. For the compound `FC(F)(F)c1cccc(CCc2nnc(-c3ccc4ncsc4c3)o2)c1`, the melting point fell in the range of 126 to 127 °C.
Compound `CC(=O)Oc1ccc(P(c2ccccc2)c2ccc(OC(C)=O)cc2)cc1` had a melting point of 118 to 120 °C.
Compound `CC(=O)Nc1nc(CCc2ccc(N)cc2)c(C(=O)NCc2ccccc2)s1` registered a melting point of 200 to 201 °C.
As for `CN(C)C(=O)c1nc(Cl)c(Cl)[nH]1`, the melting point came out at 245 °C.
In the case of `CN1CC(c2ccc(Cl)cc2)=NN(c2ccc(Cl)cc2)C1=O`, the melting point was 174 to 176 °C.
`O=C1c2ccccc2C=C(Cl)C(Cl)c2ccccc21` (configuration not stated) displayed a melting point of 123 to 125 °C.
Regarding `O=C(O)CCc1cc2cc(C(=O)c3ccccc3)ccc2n1S(=O)(=O)c1ccccc1`, the melting point was 138 °C.
Take `O=C1CCC(c2ccccc2)(N2CCCCC2)CC1`: the melting point was in the range of 116 to 117 °C.
In turn, `FC(F)(F)Sc1cc(-c2ccccc2)c(-c2ccccc2)[nH]1` yielded a melting point of 58 to 59 °C.
With `CCCC=Cc1c(C(C)C)nc(C(C)C)c(CO)c1-c1ccc(C)cc1`, the melting point was in the range of 72 to 75 °C.
Compound `CC(C)(C)[Si](C)(C)N1C(=O)CC1CC(=O)CC(=O)OCc1ccc([N+](=O)[O-])cc1` (configuration not stated) yielded a melting point of 65 to 66.5 °C.
As for `CC(C(=O)O)c1cccc(C(=O)c2cc3sccc3s2)c1` (configuration not stated), the melting point came to 133 °C.
`O=C(O)CC1(c2ccc(Cl)cc2)CNC(=O)C1` (configuration not stated) had a melting point of 190 to 191 °C.
As for `CCOC(=O)c1cc2ccc(Oc3ccc([N+](=O)[O-])cc3)cc2oc1=O`, the melting point came out at 163 °C.
As to `COc1ccc(COC(=O)c2cc([N+](=O)[O-])c3ccccc3c2O)cc1`, the melting point was 163 to 164 °C.
Consider `Cc1nnc2ccc(-c3cccc(N4CCCC4=O)c3)nn12`, for which the melting point fell in the range of 235 to 237 °C.
Consider `O=C1CCCN1[C@@H]1c2cc(C(F)(F)C(F)(F)C(F)(F)F)ccc2OC(CF)(CF)[C@H]1O` (relative stereo), for which the melting point lay within 174 to 175 °C.
Regarding `O=C(C=Cc1c(Cl)cccc1Cl)c1c(Cl)cccc1Cl`, the melting point fell in the range of 124 to 125 °C.
Compound `OCCCCCCCCCCCCCCCCCCCCO` had a melting point of 93 °C.
As for `COC(=O)CCc1cc(C)c(OP(Oc2c(C)cc(CCC(=O)OC)cc2C(C)(C)C)Oc2c(C)cc(CCC(=O)OC)cc2C(C)(C)C)c(C(C)(C)C)c1`, the melting point was 113 to 114 °C.
The result for `NC(=O)c1ncn2c1[C@@H]1CCN1C(=O)c1cc(Cl)ccc1-2` reads 251 to 253 °C.
As for `COC(=O)c1ccc(-c2ccc(-c3ccccc3)c(OS(=O)(=O)C(F)(F)F)c2)cc1`, the figure is 95 °C; as for `Cc1nc(NC(=O)CC2CC2)sc1C(=O)NCc1ccccc1`, 136 to 139 °C; as for `CCCn1nc2c(N)nc3c(c2c1CCCCO)CCCC3`, 194 to 200 °C.
The compound `COc1ccc(N(C(C)=O)C2=NN(c3ccc([N+](=O)[O-])cc3)C(=O)C2)cc1` displayed a melting point of 165 to 167 °C.
In turn, `CC(=O)Nc1cccc(OCC(O)CNCCOc2ccc(C(N)=O)cc2)c1` (configuration not stated) registered a melting point of 164 to 165 °C.
Take `NC(=O)Cc1ccc2ccn(C3CCN(CCc4ccc(F)cc4)CC3)c2c1`: the melting point was 112 to 113 °C.
The result for `N[C@@H]1CCN(Cc2ccccc2)C[C@H]1O` (relative stereo) reads 74.1 °C; that for `CSc1cnc2cc(-c3ccccc3)sc2c1O`, more than 325 °C; that for `CC(C(=O)c1ccco1)N1CCN(c2ccc(CO)c(Cl)c2)CC1` (configuration not stated), 95 to 98 °C.
Take `FC(F)(F)c1ccc(-c2cc(C(F)(F)F)n3ncc(-c4ccncc4)c3n2)cc1`: the melting point worked out at 261 °C.
On to `Nc1c(Br)cc(C(=O)CBr)cc1Br`, for which the melting point is 146 to 147 °C.
`CC(C)C(C)NC1=Nc2ccc(Cl)cc2S(=O)(=O)N1C` (configuration not stated) had a melting point of 102 to 105 °C.
As for `OC(Cn1cncn1)(c1ccc(Cl)cc1)C1(n2cncn2)CC1` (configuration not stated), the melting point was determined as 208 °C.
Consider `CN(C(=O)CN(C(=O)CNC(=O)Nc1cccc(CO)c1)c1ccccc1)c1ccccc1`, for which the melting point amounted to 120 °C.
In turn, `CCOC(=O)Cn1c(-c2ccc(F)cc2)nc2cccnc21` yielded a melting point of 126 to 128 °C.
Consider `CNC(=NCCSCc1cc(OC)ccn1)NC#N`, for which the melting point fell in the range of 121 to 122 °C.
For `Cc1cc(Oc2c(Cl)cc(C(F)(F)F)cc2Cl)nn1C(=O)NOCc1ccccc1`, the melting point was 98 to 100 °C.
Regarding `OCCc1ccc(COc2cccc(-c3c(-c4ccccc4)cnc4c(C(F)(F)F)cccc34)c2)cc1`, the melting point worked out at 50 °C.
`COc1cc(NC(=O)Nc2cccc3c2C2CC(OC)CCN2C3=O)nc2ccccc12` (configuration not stated) returned a melting point of more than 260 °C.
As to `CN(C)c1ccc(C2(CNC(=O)Nc3ccccc3CCc3cc(C(C)(C)C)c(O)c(C(C)(C)C)c3)CCCC2)cc1`, the melting point fell in the range of 174 to 175 °C.
As for `Cc1ccc(C(O)(c2ccc3c(c2)c(-c2cccc(Cl)c2)nc2nnnn23)c2cncn2C)cc1` (configuration not stated), the figure is 165 °C; as for `O=C(NC1Cc2ccc([N+](=O)[O-])cc2C1)c1ccc(F)cc1` (configuration not stated), 167 °C; as for `CC(=O)NNC(=O)N(O)C1c2ccccc2Oc2ccccc21`, 173 to 176 °C.
Compound `O=CNC1=NN(c2cccc(F)c2)C(c2ccc(Cl)cc2)C1` (configuration not stated) came in with a melting point of 128 to 130 °C.
For `CC(=O)Nc1ccc(S(=O)(=O)Nc2ccn(C3CCCC3)c(=O)n2)cc1`, the melting point is 219 to 228 °C.
In turn, `CN=C1c2ccccc2CCc2ccccc21` displayed a melting point of 89 to 90 °C.
With `O=c1oc2c(c(O)c1C(c1cccc(S(=O)(=O)Nc3ccccc3)c1)C1CC1)CCCCCC2` (configuration not stated), the melting point lay in the range of 200 to 203 °C.
On to `COC(=O)COc1ccc(SCc2ccc(-c3ccc(C(F)(F)F)cc3)cc2)c2c1CCCO2`, for which the melting point lay in the range of 122 to 124 °C.
The compound `Cc1cccc(-c2sc3ccc(C(F)(F)F)cc3c2O)c1` returned a melting point of 124 to 126 °C.
In turn, `COC(=O)c1ccc(N2CCN(C)CC2)cc1` yielded a melting point of 117 to 119 °C.
Turning to `O=C1Nc2cc(NC(=O)c3cccn(-c4ccc(F)cc4)c3=O)ccc2/C1=C/c1ccc[nH]1`, the melting point was more than 300 °C.
Regarding `CC(=O)NCc1ccc2c(c1)N(C1CCN(CCc3ccc(F)cc3)CC1)CC2`, the melting point was in the range of 160 to 162 °C.
The compound `O=c1n(-c2ccc(OCC(F)(F)C(F)F)cc2)cnn1-c1ccc([N+](=O)[O-])cc1` gave a melting point of 161 to 162 °C.
For the compound `COc1ccc(C2(C#Cc3ccccc3)CCCC(=O)C2)cc1OC1CCCC1` (configuration not stated), the melting point was in the range of 90 to 91 °C.
As for `CCOC(=O)C(C)Oc1cc(-c2ccccc2)nc2ccccc12` (configuration not stated), the figure is 80 °C; as for `CC(C)(C)c1ccc(/C=N/OCCCOc2ccc(C(=O)O)c(NC(=O)c3ccccc3C(F)(F)F)c2)cc1`, 121 to 122 °C; as for `CCOC(=O)/C=C/c1cnn(C)c1`, 43 to 44 °C.
With `NS(=O)(=O)CC(=O)c1ccc(Cl)cc1Cl`, the melting point lay in the range of 136 to 139 °C.
The compound `O=C(O)c1cc(-c2ccc([N+](=O)[O-])cc2)c(-c2ccc(F)cc2)s1` returned a melting point of 227 to 229 °C.
In turn, `COc1ccc(C(O)CN2CCNC2=O)cc1OC` (configuration not stated) gave a melting point of 166 °C.
On to `CN(C)CCC1CCC2(CC1)Nc1cc(Cl)c(S(N)(=O)=O)cc1S(=O)(=O)N2` (configuration not stated), for which the melting point is 238 to 239 °C.
